What was measured:
iPS cells = assay: Growth of iPS cells in the presence of doxycycline (dose response); format: cell-based, human; details: FIG. 7B
Method: The media conditions to maintain human iPSCs have all been previously described (40). For passaging the cells Accutase (StemCell Technologies, Vancouver, BC) was used for 5 minutes at 37° C. and then stopped with iPSC media containing 10 μM Y-27632 (Selleckchem, Houston, Tex.) (41). The dissociated IPSCs were seeded on new plates with media containing Y-27632, and after 24 hours replaced with media alone. iPSC media was changed daily.
We also did a complete dose-response curve on the growth of iPS cells in the presence of doxycycline up to 30 μg/mL, with toxicity observed beginning at the 10 μg/mL level (FIG. 7B). Beyond effects on iPS cells, we further confirmed the ability of doxycycline to support the induction of iPSCs to endoderm. For this we performed immunohistochemical staining for markers of endoderm, including CXCR4, SOX17, FOXA2, and HNF16 (FIG. 2A and 2B). […] More importantly, the ML1 protocol allowed induction of complete monolayers of endoderm from virtually any iPSC. Compared to many of the other protocols that we tested for poorly differentiating iPS cell lines(6, 8), we could actually differentiate most lines using the ML1 protocol, but only a fraction of them using the other protocols. […]

Cleaved Caspase 3 (CC3) = assay: Cleaved caspase 3 immunofluorescence during endoderm induction; format: cell-based, human; details: 48 hours of induction, 4 different cell-line experiments
Method: Immunohistochemistry and Cell staining. iPSCs, endodermal cells and iHeps were fixed using 4% paraformaldehyde for 15 minutes, permeabilized using 0.1% Triton X-100 for 10 minutes followed by 3× PBS (phosphate buffered saline, Corning Life Sciences) rinses and blocking with 1.5% bovine serum albumin for 1 hour. Samples were incubated with primary antibody overnight. […]
As a first step to understand the mechanism by which doxycycline was affecting induction of iPSCs into endoderm, we explored whether doxycycline was affecting proliferation versus cellular death. […] After quantification, we noted both significant Ki-67 staining and cleaved caspase 3 (CC3) staining, as expected (FIG. 3A). […]

SMILES: C[C@H]1c2cccc(O)c2C(=O)C2=C(O)[C@]3(O)C(=O)C(C(N)=O)=C(O)[C@@H](N(C)C)[C@@H]3[C@@H](O)[C@@H]21 [doxycycline]
- titration of doxycycline, outcome in words (iPS cells): an optimal level of doxycycline and a toxic level
- concentration at which toxicity begins (iPS cells; dose-response up to 30 μg/mL): 10 µg/mL
- decrease in CC3 staining (Cleaved Caspase 3 (CC3)): greater than 50%
